# Assay results reported in patent US20260022380A1, “GENETIC MODULATORS OF KRAS PROTEIN EXPRESSION AND THEIR USES” (Northwestern University, priority 2024, published 2026).
# How the values were obtained:
# SW403 xenograft = assay: SW403 G12V KRAS mutant xenograft study; format: in vivo
# Method: To establish cell-line-derived xenograft models, 5 million cells (SW403 and NCI-H441) suspended in PBS were subcutaneously injected to the right flanks of 8-week-old female athymic nude (nu/nu) mice purchased from the Jackson Laboratory. Once tumor reached approximately 50 mm3 volume, mice were randomized into groups (n=10) and treated with vehicle control (corn oil) or ELOVL6 inhibitor (dissolved in corn oil) dosed at 300 mg/kg. Treatment was administered twice daily by oral gavage. Tumor growth was measured 2-3 times per week using a caliper. Tumors were collected at the indicated timepoint and at the endpoint for analysis. For KRAS downstream signaling analysis, tumors were dissociated into single cells for flow cytometry analysis and protein was extract for western blotting.
# Tumor specimens were fixed in 10% formalin for at least 24 hours. Then washed with PBS and stored in 70% ethanol until paraffin embedding. Slides were stained using Dako Autostainer Plus. The following antibodies were used for staining: KRAS (Proteintech, #12063-1-AP), Ki-67 (Abcam, Ab15580), phospho-ERK (Cell Signaling Technology, #4370S), and ERK (Cell Signaling Technology, #4695s). Slides were then incubated with HRP labelled polymer anti-rabbit antibody (Agilent, K4003). All slides were […] through xylene and alcohol, them mounted, and cover slipped. Slides were scanned at 20× using a Nano Zoomer 2.0 HT (Hamamatsu Photonics).
# [1] = tested on: G12V or G12D KRAS cell lines; assay: Lipid add-back cell viability experiment; format: cell-based; settings: 200 μM oleic acid or 20 μM stearic acid supplemented medium, FIGS. 5G and 19
# Method: (§1) The cells were seeded in triplicates in 96-well plates at a density of 5,000-10,000 cells per well and treated with the indicated concentrations of ELOVL6 inhibitor. Assay plates were subjected to daily media exchange with fresh ELOVL6 inhibitor. Following treatment, cell viability was assessed after a period of 1-week treatment using the CellTiter-Glo Luminescent Cell Viability Assay (Promega, #G7571) with luminescence readings taken on a Cytation™ 3 cell imaging multi-mode reader (Fisher Scientific). The background value was indicated by cell medium without cells and was subtracted from the raw data. The fold change in cell viability was determined relative to control cells that received no treatment.
# For the lipid-addback experiment, cells were treated with the indicated concentrations of ELOVL6 inhibitor in 200 μM of oleic acid (Sigma, #O1383-1G) or 20 μM of stearic acid (Sigma, #S4751-1G) supplemented medium.
# G12V KRAS in SW480 cells = assay: KRAS protein expression after ELOVL6i treatment at different concentrations (immunoblot); format: cell-based, human; settings: FIG. 2G
# Method: Whole-cell extracts were prepared using RIPA buffer (Sigma, #R0278) supplemented with protease and phosphatase inhibitor cocktail (Thermo Fisher Scientific, #78442) on ice for 20 minutes. Subsequently, the lysates were centrifuged at 10,000 g for 20 minutes, and the protein concentration was determined using the BCA assay (Thermo Fisher Scientific, #A55864). The proteins were separated on 4-15% precast protein gels (Bio-Rad, #4568084) in 1×-Tris-Glycine-SDS buffer (Bio-Rad, #1610772) at a constant voltage of 100V and transferred onto nitrocellulose membrane (Bio-Rad, #1620115) using 1× Tris-Glycine Buffer (Bio-Rad, 1610734) at 100V for 1 hour. Following transfer, membrane was blocked in 5% skim milk for 1 hour, then incubated at 4° C. with primary antibodies. Detection was performed using horseradish peroxidase (HRP)-conjugated secondary antibodies. Blots were visualized with chemiluminescent substrate (Thermo Fisher Scientific, #34580) using Azure imaging system. Immunoblots were quantified using ImageJ.
# [2] = tested on: human cell lines harboring KRAS mutations (colorectal, lung, pancreatic cancers); assay: Cell viability assay (CellTiter-Glo, 7-day ELOVL6i treatment) across a cell line panel; format: cell-based
# Method: as §1
# mCherry-G12V KRAS = assay: Live-cell imaging of mCherry-KRAS and plasma membrane co-localization; format: cell-based, human; settings: 40 μM, FIGS. 2H-2K
# Method: HT29 and SW480 cells were transduced with mCherry-WT-KRAS (Addgene, #153335) or mCherry-G12V-KRAS (Addgene, #153336) plasmid for stable mCherry-KRAS expression. Cells were seeded onto 35 mm glass bottom dish (Fisher Scientific, #NC0794151). ELOVL6 inhibitor was added at 40 μM prior to imaging. Cells were stained with CellBrite™ Steady 488 membrane dye (Biotium, #30106 T) for 30 minutes. Live cells were imaged using Nikon W1 dual cam spinning disk confocal with TIRF and a 100× objective. Five random fields of view (FOV) were selected, and an image/FOV was taken every 15 minutes for a duration of 20 hours. Images were analyzed by Fiji Image J. The mean fluorescence intensity of mCherry-KRAS was normalized to the time zero measurement of each FOV to generate relative mCherry-KRAS expression across the experiment's timespan. The Pearson's coefficient plugin JACop from ImageJ was used for quantification co-localization between mCherry-KRAS and cell membrane dye.
# [3] = tested on: GTP-bound KRAS in cancer cell lines harboring G12V or G12D KRAS; assay: RAS activation assay (active-KRAS pull-down) in mutant KRAS cancer cell lines; format: cell-based, human; settings: multiple cancer cell lines harboring G12V or G12D KRAS, 40 μM for 3 days, FIGS. 3E-3G
# Method: (§2) Cells were treated with 40 μM of ELOVL6 inhibitor ELOVL6-IN-2 (MCE, HY-12146) for 3days and collected for protein extraction. RAS activity was assessed utilizing the active Ras pull-down and detection kit (Thermo Fisher Scientific, #16117). In brief, GST-RAF1 RBD and glutathione agarose resin were combined with whole-cell lysates and incubated on a rotator for 1 hour at 4° C. This was followed by three washes and elution with 2× SDS-PAGE loading buffer. The eluted samples were then subjected to western blotting to detect GTP-RAS.
# [4] = tested on: GTP-bound KRAS in G12V KRAS expressing HEK293 cells; assay: RAS activation assay (active-KRAS pull-down) in HEK293 cells; format: cell-based, human; settings: 40 μM for 3 days, FIG. 3D
# Method: as §2
# [5] = tested on: mCherry-G12V KRAS expressing HT29 cells; assay: mCherry-tagged G12V KRAS protein level after ELOVL6i treatment; format: cell-based, human; settings: FIGS. 11A and 11B
# Method: To label intracellular markers, live cells were fixed with 4% paraformaldehyde (Fisher Scientific, #AA47377-9M) for 20 minutes, washed with PBS, permeabilized with 0.2% Triton X-100 (Sigma, X100-100ML) for 10 minutes, blocked with PBS with 2% BSA (flow buffer) for 30 minutes then stained with the antibodies prepared in flow buffer. Cells were incubated with primary antibodies for 1-hour at room temperature. Primary antibodies used were: anti-KRAS (Proteintech, #12063-1-AP), anti-phospho-ERK (Thr202/Tyr204) (Cell Signaling Technology, #4370S), and anti-ERK (Cell Signaling Technology, #4695S). After wash with flow buffer, cells were incubated with secondary antibodies for 30 minutes. […] Stained samples and the isotype control were analyzed immediately by flow cytometers. Data were analyzed using the FlowJo software. MFI was defined as median fluorescence across the cell population.
# HT29 and SW480 cells were transduced with mCherry-WT-KRAS (Addgene, #153335) or mCherry-G12V-KRAS (Addgene, #153336) plasmid for stable mCherry-KRAS expression. […] Images were analyzed by Fiji Image J. The mean fluorescence intensity of mCherry-KRAS was normalized to the time zero measurement of each FOV to generate relative mCherry-KRAS expression across the experiment's timespan. […]
# [6] = tested on: cellular lipid composition (ELOVL6 fatty acid elongation); assay: Lipidomic analysis (targeted fatty acids and shotgun lipidomics) of ELOVL6i treated cells; format: cell-based; settings: 40 μM for 1-week
# Method: Cells were treated with ELOVL6 inhibitor at 40 μM for 1-week. Cell pellets were stored at −80° C. until sent for lipidomic analysis. Mass spectrometry-based shotgun untargeted lipid analysis and targeted fatty acids analysis were conducted by Lipotype (Dresden, Germany). Lipids were extracted using chloroform and methanol procedure as previously described (38). Samples were analyzed by automated direct infusion and orbitrap mass spectrometry. LipotypeXplorer was used for identification of lipids in the raw mass spectra (39). Alterations in lipid composition were determined based on mol % of total lipid normalized to untreated control samples.
# [7] = targeted lipidomic analysis, versus vehicle-treated controls, FIGS. 5A and 16
smiles,measurement,setting,value
Cc1[nH]n(-c2ccc(OC(F)(F)F)cc2)c(=O)c1C1(C(F)(F)F)C(=O)N(c2ccccc2)C2=C1C(=O)CC(C)(C)C2 (centres unmarked) [ELOVL6i],ERK phosphorylation (immunohistochemistry),"SW403 xenograft; SW403 tumor samples, FIG. 4E",significant decrease
same,expression of mutant KRAS (immunohistochemistry),"SW403 xenograft; SW403 tumor samples, FIG. 4E",significant decrease
same,ki-67 proliferation marker (immunohistochemistry),"SW403 xenograft; SW403 tumor samples, FIG. 4E",significant decrease
same,ERK phosphorylation in tumor samples,"SW403 xenograft; SW403 tumors, western blot and flow cytometry after 3-day, 1-week, 3-week treatment, FIGS. 13B-13D",time-dependent reduction
same,survival,"SW403 xenograft; SW403 xenograft, oral, 300 mg/kg, FIG. 4D",prolonged survival
same,tumor growth rate,"SW403 xenograft; SW403 xenograft, oral, 300 mg/kg, FIGS. 4B-4D",significant reduction
same,tolerability,"SW403 xenograft; mice bearing SW403 xenograft, oral, 300 mg/kg, FIG. 13A",well tolerated
same,cell viability with exogenous oleic acid or stearic acid supplementation during ELOVL6i treatment,[1],enhanced cell viability
same,effect on G12V KRAS protein level,G12V KRAS in SW480 cells,concentration-dependent effect
same,sensitivity of mutant KRAS-expressing cells versus WT KRAS expressing cells,"[2]; 7-day treatment, FIGS. 4G-4I and 14",more sensitive
same,cell viability across KRAS variants,"[2]; G12V, G12D, G13D, G12C, G12R, Q61X, A146T cell lines, 7-day treatment, FIG. 4F",impacted cell viability across all KRAS variants tested
same,sensitivity of pancreatic cancer cell lines (antiproliferative effect),[2]; panel of human KRAS mutant cell lines,especially sensitive
same,mCherry-G12V KRAS co-localization with cell membrane,mCherry-G12V KRAS,Significant reductions
same,mCherry-G12V KRAS fluorescence intensity,mCherry-G12V KRAS,Significant reductions
same,cellular GTP-bound KRAS,[3],consistently reduced
same,GTP-bound KRAS,[4],significantly reduced
same,lowering of mCherry-G12V KRAS,[5],dose-dependent effects
same,long-chain PUFA,[6]; ELOVL6i treated cells,increases
same,"sphingolipids, including sphingomyelin (SM) and Hexosyl-Ceramide (HexCer)","[6]; shotgun lipidomic analysis, FIG. 5C",significant reduction
same,levels of PtdSer,"[6]; shotgun lipidomic analysis, FIG. 5E",significantly altered
same,"glycerolipid abundance, including diacylglycerol (DAG) and triacylglycerol (TAG)","[6]; shotgun lipidomic analysis, FIGS. 5B and 18A",Notable increases
same,levels of oleate,[6]; [7],significant reduction
same,levels of stearate,[6]; [7],significant reduction
